Tests used:
[1] = test system: P3HR1 virus super-infection of Raji cells; test: EBV antibody neutralization assay; format: cell-based, Epstein-Barr virus; details: FIG. 2B, log10 dilutions of 0.01 to 10 μg/ml
Procedure: Antibody neutralization potency was measured as the inhibition of EBV early antigen (EA) expression upon super-infection of Raji cells by P3HR1 virus (33). Mixtures of concentrated virus (2×10^4 EA-inducing units) and serial dilutions of purified antibody were incubated in a final volume of 0.1 ml for 60 min at 37° C. prior to the addition of 5×10^4 Raji cells. The Raji cell-virus mixture was further incubated for 60 min at 37° C. followed by resuspension in RPMI medium and a 2-day incubation at 37° C. The number of Raji cells expressing EA after cell culture was measured by immunofluorescence, and relative antibody neutralization potency per μg of antibody was calculated.

[2] = test system: anti-gp350 monoclonal antibody 72A1; test: Peptide ELISA: 72A1 antibody binding to plate-coated gp350 mimetic peptides; parameters: species or system murine; details: for binding to the 72A1 antibody: FIG. 4A, peptide coated on ELISA plate; for Notes: reactivity with the 72A1 monoclonal antibody: Table III
Procedure: (§1) Gp350 mimetic peptides that were synthesized and HPLC purified to >70% (Elim Biopharmaceuticals®, Hayward, Calif.) were suspended at 2.5 μg/mL in 0.1M carbonate buffer pH 9 prior to their overnight incubation at 4° C. as 100 μL aliquots in a 96 well ELISA plate (Ultident®, St. Laurent, QC). Peptide-coated plates were washed 4× with PBS:0.05% Tween-20®, blocked with 1% BSA:PBS and incubated for a minimum of 2 h at room temperature (RT) with anti-gp350 monoclonal antibody 72A1, or the isotype-matched, background-control anti-LMP1 monoclonal antibody S-12 and 1:100 dilutions of commercial intravenous gamma globulin (IVIG) (18). Bound monoclonal antibodies were detected using biotin-conjugated goat anti-mouse IgG, biotin-conjugated anti-human IgG and horseradish peroxidase (HRP)-conjugated streptavidin (Jackson Immunoresearch Laboratories®, West Grove, Pa.) in conjunction with 3,3′,5,5′-Tetramethylbenzidine substrate (TMB solution, Bioshop®, Burlington ON). HRP enzyme activity was stopped with an equal volume of 1N HCl and wells read at 450nm.

[3] = test system: 72A1 antibody recognition of gp350 protein; test: Competition ELISA: 72A1 pre-incubated with gp350 mimetic peptides in solution, then tested for binding to gp350; parameters: species or system Epstein-Barr virus; details: for inhibition of 72A1 antibody recognition of gp350 protein: FIG. 4B, peptide allowed to interact with 72A1 in solution
Procedure: Whole cell ELISA was performed using CEM cells or CEM cells expressing gp350. The cells were washed with PBS, suspended at 1×10^6 cells/mL in PBS and 40 μL aliquots were added to each ELISA plate well. Plates were vacuum-dried prior to cell fixation with cold methanol. Plates were washed with PBS and wells blocked in 1% BSA:PBS prior to a 1 h exposure to monoclonal antibody or monoclonal antibody that was pre-incubated for 2 or more hours with gp350 mimetic peptides. Bound monoclonal antibodies were detected using biotin-conjugated goat anti-mouse IgG, HRP-conjugated streptavidin as outlined above.
Although peptide 3 contained the amino acid sequence EID shown by mutation to result in a loss of 72A1 binding (31), the lack of noted binding by peptide 3 may have been due to inappropriate adsorption to the ELISA plate that interfered with antibody binding. To avoid potential ELISA plate interference, gp350 mimetic peptides were allowed to interact with 72A1 antibody in solution, and later the antibody was tested for its ability to bind to native gp350 protein.

native gp350 = test: Peptide immunization of mice: serum recognition of native gp350; format: in vivo, Balb/C female mice; details: FIG. 7B, same mice sera, ± SEM
Procedure: (§2) Balb/C female mice were immunized intraperitoneally with 100 μg of keyhole limpet hemocyanin (KLH)-coupled with gp350 mimetic peptide (Sigma Conjugation Kit) emulsified in Sigma Adjuvant System (Sigma-Aldrich). Mice were re-injected every 21 days and blood was drawn 14 days after the second injection. Following the third immunization, IgG levels of peptide reactivity were measured by ELISA.
(§3) Balb/C female mice were immunized intraperitoneally with gp350 mimetic peptides as described in Example 1 above. Following the third immunization, IgG levels of peptide reactivity were measured by ELISA. All mice generated antibodies to their respective peptides with average antibody concentrations (pg/ml) of 97±46 SEM, 122±67 and 981±577 for p1, p2 and p3, respectively (FIG. 7A).

[4] = test system: 72A1 recognition of gp350; test: Sera from peptide-immunized mice blocking biotinylated-72A1 binding to gp350; format: in vivo, Balb/C female mice; details: FIG. 7C, pooled serum from peptide immunized mice, 1:50 dilution
Procedure: Histogram of biotinylated-72A1 binding to gp350 protein that was pre-exposed to mouse preimmune (preimm) serum, pooled serum from peptide immunized mice (1:50 dilution), or 1 μg/ml 72A1, or 0.5 mg/ml BSA. Average OD±SEM was derived from three separate experiments. P-values≤0.05 are indicated (*).
as §2, §3

[5] = test system: human IgG (IVIG, human EBV immune serum); test: Peptide ELISA with commercial intravenous gamma globulin (IVIG); format: binding; details: FIG. 5, thirty-nine lots of IVIG, ± SD
Procedure: as §1
Although p2 was recognized by the murine monoclonal antibody 72A1 and was capable of generating antibodies that recognized the gp350 neutralizing epitope in mice, it is unknown whether EBV-positive human sera would recognize this gp350 mimetic peptide. The determination of human IgG reactivity against each of the three peptides could serve as a surrogate indicator of whether the gp350 mimetic peptides would be immunogenic or capable of generating an anti-gp350 antibody response. […] This was followed by p1 at levels of 1.83±0.07 pg/ml and by p3 with antibody levels of 1.7±0.06 pg/ml.

[6] = Peptide immunization of mice: anti-peptide IgG by ELISA; format: in vivo, Balb/C female mice; details: FIG. 7A, KLH-coupled peptide 100 μg i.p., after third immunization, ± SEM
Procedure: as §2, §3

[7] = FIG. 4C, altered domain compared to peptide 2

Substance	average antibody concentration recognizing native gp350 (native gp350)	anti-peptide antibody levels in IVIG [5]	average anti-peptide antibody concentration [6]	binding to the 72A1 antibody [2]	further results
72A1 antibody: well-known mouse monoclonal antibody (IgG1 isotype), EBV gp350 neutralizing, commercially available					block of P3HR1 EBV super-infection of Raji cells [1]: block P3HR1 virus superinfection of Raji cells
AAAAAAAAQNPVYLIPETVPYIKWDN (SEQ ID NO: 33) (Epstein-Barr virus) [Peptide 2.2, Ala substitution of domain 1 of peptide 2]					binding activity compared to parental peptide 2 ([2]; FIG. 6B, peptide 2 = 100%): 56%; reduction in recognition of p2 by 72A1 antibody [3, 7]: 50%
DDRTLQLAAAPVAALIPAVVPAIAWAA (SEQ ID NO: 34) (Epstein-Barr virus) [Peptide 2.3, Domain 1-LA-altered Domain 2]					binding to the 72A1 monoclonal antibody ([2]; FIGS. 6A and 6B, alanine substitutions): did not bind; recognition of p2 by 72A1 antibody after domain alteration [3, 7]: abolished recognition
DDRTLQLAQNPVYLIPETVPYIKWDN (SEQ ID NO: 4) (Epstein-Barr virus) [Peptide 2]	1.3 ± 0.9 pg/mL	2.16 ± 0.08 pg/mL	122 ± 67 pg/mL	strongly bound	inhibition of 72A1 recognition of gp350 by antisera [4]: 38%; inhibition of 72A1 antibody recognition of gp350 protein [3]: 78%
EEKSAEAAQQPADAAPDSAPDAKMDQ (SEQ ID NO: 32) (Epstein-Barr virus) [Peptide 2.1, 72a1 positive mimeotope]					Notes: reactivity with the 72A1 monoclonal antibody [2]: 72a1 positive
GSAKPGNGSYFASVKTEMLGNEID (SEQ ID NO: 27) (Epstein-Barr virus) [Peptide 3, gp350 mimetic peptide encompassing the central area of the purported gp350 neutralizing domain]	4.1 ± 2.4 pg/mL	1.7 ± 0.06 pg/mL	981 ± 577 pg/mL	did not bind	inhibition of 72A1 recognition of gp350 by antisera [4]: 23%; inhibition of 72A1 antibody recognition of gp350 protein [3]: 8%
SKAPESTTTSPTLNTTGFADY (SEQ ID NO: 31) (Epstein-Barr virus) [Peptide 1, reference compound]	0.015 ± 0.01 pg/mL	1.83 ± 0.07 pg/mL	97 ± 46 pg/mL	did not bind	ELISA activity with 72A1 ([2]; FIG. 6A, value subtracted from the peptide 2 series before plotting): 0.355 OD; Notes: reactivity with the 72A1 monoclonal antibody [2]: 72A1 non-reactive
